Literature values as cited in patent US12440530B2, “Skin solution with solubilized bakuchiol” (Envy Medical, Inc., priority 2013, dated 2025).

Experiments:
facial acne vulgaris = details: in vivo

Row | Structure (SMILES) | solubility in water | inflammatory (papules, cysts) and noninflammatory (blackheads) lesions (facial acne vulgaris) | study subjects with partial or total clearing of acne-related post inflammatory hyperpigmentation (PIH) (facial acne vulgaris)
1 | CC(C)=CCC[C@](C)(O)C1CC=C(C)CC1 (stereo partly shown) [bisabolol] | very insoluble in water | – | –
2 | C=C[C@@](C)(/C=C/c1ccc(O)cc1)CCC=C(C)C [Bakuchiol, bakuchiol] | very insoluble in water | significant reductions | Forty-five
